The values below are quoted from earlier work in US20210338846A1, “COMPETITIVE PROSTATE-SPECIFIC MEMBRANE ANTIGEN (PSMA) BINDING AGENTS FOR REDUCTION OF NON-TARGET ORGAN UPTAKE OF RADIOLABELED PSMA INHIBITORS FOR PSMA POSITIVE TUMOR IMAGING AND RADIOPHARMACEUTICAL THERAPY” (The Johns Hopkins University, priority 2018, published 2021).

The conditions of the data set: mouse treated with 1.5 MBq; from Kiess et al., 2016; cited from earlier work.

Regarding `O=C(O)CC[C@H](NC(=O)NC(CCCCNC(=O)c1ccc([211At])cc1)C(=O)O)C(=O)O` (stereo partly drawn) [[^211At]DCIBzL, (2S)-2-(3-(1-Carboxy-5-(4-[^211At]astatobenzamido)pentyl)ureido)-pentanedioic acid], the renal histopathology result is “severe renal damage”.
